IC50 and Activity data for 1 compound are collected here from ChEMBL document CHEMBL1150616, “Schizopeptin 791, a new anabeanopeptin-like cyclic peptide from the cyanobacterium Schizothrix sp” (J Nat Prod, 2002).

The nature of test [1]: Inhibition of trypsin.
Test [2] is described as follows: Inhibition of chymotrypsin at 45 ug/mL.

Converted amounts (≈) assume the structure as drawn. The source made the active and inactive calls. The rule behind the calls is not given here.

Turning to `CC[C@H](C)[C@H](NC(=O)N[C@@H]1CCCCNC(=O)[C@H](Cc2ccccc2)NC(=O)[C@H](C)N(C)C(=O)[C@H](CCc2ccccc2)NC(=O)[C@H]([C@@H](C)CC)NC1=O)C(=O)O` [Schizopeptin 791], the 50% inhibitory concentration (IC50) (commonly the concentration at which inhibition is half-maximal) in test [1] turned out to be 45 µg/mL (≈ 56.8 µM). The outcome in test [2] was inactive.
